Experiment [1] has as its target human αvβ3 receptor (Homo sapiens, UniProt P05106+P06756). As to the kind of experiment: Displacement of the binding Vitronectin/Vitronectin receptor (αvβ3), competition test. The following applies: human vitronectin coated plates, 3 hours at ambient temperature, read-out: Competition test Vn/VR (αvβ3) binding IC50 en. On the procedure: 1—Study of the Products of the Invention on the Displacement of the Binding: Vitronectin/Vitronectin Receptor (αvβ3) […]
MaxiSorp 96-well plates are coated overnight at 4° C., with 100 μl of human Vitronectin (cf Yatohgo et al. Cell., Structure and fraction 13: 281-292 (1988)) at 2 μg/ml, (Dilution in coating buffer).
The next day, the wells are emptied and the ligands (Vitronectin) are then fixed (see fixing buffer) for one hour at ambient temperature under gentle agitation.
The wells are washed six times (see washing buffer), then the following are added to each well and in this order:
40 μl of incubation buffer, 10 μl of the dilution of the product to be tested, (the products are diluted in a 50/50 mixture of DMSO-H2O) 50 μl of human αvβ3 receptor (cf Pytela et al. Methods Enzymol (1987) 144:475) (dilution in incubation buffer, to be adapted according to the receptor batch and according to the ligand).
The ligand, the human αvβ3 receptor and the products to be studied are incubated for 3 hours at ambient temperature under gentle agitation.
The wells are again washed six times, then incubated for 2 hours at ambient temperature under gentle agitation, in the presence of 100 μl of anti-receptor, 4B12-HRP antibody coupled to a peroxidase (the 4B12-HRP antibody is diluted in an incubation buffer. The dilution is to be adapted according to the receptor batch).
This kit contains a bottle A of substrate (3,3′,5,5′-tetramethylbenzidine at 0.4 g/l) and a bottle B (H2O2 at 0.02% in a citrate/citric acid buffer). Extemporaneously, a volume of A is mixed with a volume of B, then the reaction mixture is distributed at a rate of 100 μl/well. The enzymatic reaction develops over […] for Vitronectin/αvβ3, then its development is stopped by the addition of 100 μl of 1M phosphoric acid. The optical density is measured at 450 nm. […]
coating buffer: Carbonate 0.05 M, NaOH pH 9.6 fixing buffer: PBS containing 0.5% BSA (pH 7.4) washing buffer: PBS containing 0.05% Tween 20 (pH 7.4)
Expression of the Results:
The following curve is traced: the percentage of binding of the human vitronectin as a function of the logarithm of the concentration of each product tested.
For each product the IC50 is determined according to the following formula:
BO=Maximum binding in the absence of any product
Bmin=Minimum binding in the presence of the highest concentration of product.

Experiment [2] deals with bone resorption (skullcaps of new-born mice). As to the kind of experiment: Test of mouse calvarium: bone resorption by release of 45Ca from skullcaps of new-born mice, ex-vivo. The following applies: inhibition of bone resorption (45Ca release) in half-calvaria, 48 hours contact; for inhibition at 10 µM: Mus musculus, read-out: Mouse cavarium % inhibition at 10 μM. The source says:
2—Test of Mouse Calvarium
Injection of a tracer dose of ^45Ca (CaCl2) to gestating female mice in order to study bone resorption by measuring the release of ^45Ca from the skullcaps of new-born mice.
Determination of the activity of a molecule on bone resorption, ex-vivo study.
Vehicle: DMSO, H2O/BSA (0.1%)
Dose: Variable ([…] in screening).
Echistatin (ref. H-9010-BACHEM)
^45Ca in the form of an aqueous solution of CaCl2—ref. CES3 AMERSHAM or NEZ-013 NEN.
Vehicle: Physiological serum
Dose: 25 μCi/mouse/0.4 ml
CMRL 1066 with phenol red (ref. 041-01535 M/GIBCO) supplemented by 0.1% BSA and penicillin/streptomycin.
1) Injection of ^45Ca to Gestating Mice (OF1, Strain: Swiss)
a) Preparation of the Labelled Solution:
190 μl of the mother solution of calcium at 2 mci/ml is added to 6 ml of physiological serum.
On the 17th day of gestation the mice receive 400 μl of this solution by intravenous route, that is 25 μCi/mouse.
2) Removal of the Tissue (Skullcap (Calvarium))
Six days after their birth the new-born mice are decapitated, then the head is recovered, and the skin is incised from the nape to the front. The skullcap is removed by cutting it out with scissors, and using a punch two exactly identical half-calvaria (one on the left and one on the right) are cut from the parietal bones. One will serve as the control, the other will be used to test the product to be studied.
Each half calvarium is placed in a well of a 24-well plate, containing 1 ml of medium, on a 100 μm polyethylene and nylex support, in order to avoid all contact with the bottom of the well.
After 24 hours, the polyethylene supports carrying the calvaria are transferred into new 24-well plates containing 1 ml of fresh medium and the products to be tested or their solvents. 200 μl of medium from the first plates is removed from each well and a first count of the radioactivity is carried out (value A).
This change of medium allows all the mechanical stress associated with the removal to be eliminated.
48 hours after putting the tissues in contact with the studied products, 200 μl of medium is removed from each well and counted (value B), so as to determine the quantity of ^45Ca released from the medium during the so-called resorption phase.
The calvarium is then completely demineralized in 1 ml of 5% trichloracetic acid and after digestion, 200 μl is also removed and counted so as to determine the quantity of calcium remaining in the bone (value C). Expression of the results
A % of bone resorption is calculated for each half-calvarium (each well) in the following manner:
% bone resorption=dpm B/dpm (A+B+C)×100
The sum of dpm A+B+C represents the quantity of ^45Ca incorporated in each bone part on the day of removal.
In order to measure the effect of a product, the ratio of the percentage of bone resorption of the treated well and of the corresponding control well is calculated for each point. The value found called the resorption index is comprised between 0 and 1 if the product inhibits bone resorption and is >1 if the product potentializes it. The average of the 6 indices (since there are 6 points/group) of each product is then calculated which gives one index/product. If this index is subtracted from the value 1, the inhibitory power of the product is obtained, which can be expressed as a percentage.
Furthermore a statistical test (Student T-test) is carried out by comparing point/point the individual resorption indices.

Broadly, the inhibition is the relative decrease from the control value, in per cent.

Counter-ions that a name gives are not always drawn.

“4-((4-(((Amino)iminomethyl)hydrazono)-9,10-dimethoxy-1,2,3,4,5,6-hexahydrobenz(e)azulen-8-yl)oxy)-butanoic Acid [EX. 2]”: the IC50 in experiment [1] was found to be 450 nM. The “Mouse cavarium % inhibition at 10 μM” value in experiment [2] is on record as 19%.
On to “4-((4-(((Amino)iminomethyl)hydrazono)-9,10-dimethoxy-1,2,3,4,5,6-hexahydrobenz(e)azulen-8-yl)oxy)-pentanoic Acid [EX. 3]”, for which the IC50 in experiment [1] worked out at 2100 nM.
Consider `COc1c(OCCC(NC(=O)OCc2ccccc2)C(=O)O)cc2c(c1OC)C1=C(CCC1)C(=NNC1=NCCCN1)CC2` (racemic), for which the IC50 in experiment [1] was 6 nM. In addition, the inhibition at 10 µM in experiment [2] worked out at 30%.
On to `COc1c(OCCC(NC(=O)OCc2ccccc2)C(=O)O)cc2c(c1OC)C1=C(CCC1)C(=NNC1=NCCN1)CC2` (racemic) [EX. 24, O-[4-[(4,5-dihydro-1H-imidazol-2-yl)hydrazono)-9,10-dimethoxy-1,2,3,4,5,6-hexahydro-8-benz(e)azulenyl]-N-[(phenylmethoxy)carbonyl]-DL-homoserine], for which the IC50 in experiment [1] was 30 nM. Moreover, the inhibition at 10 µM in experiment [2] was found to be 18%.
For the molecule `O=C(NC(CCOc1ccc2c(c1)CCC(=NNC1=NCCN1)C1=C2CCC1)C(=O)O)OCc1ccccc1` (racemic) [EX. 25, O-[4-[(4,5-Dihydro-1H-imidazol-2-yl)hydrazono)-1,2,3,4,5,6-hexahydro-8-benz(e)azulenyl]-N-[(phenylmethoxy)-carbonyl]-DL-homoserine], in experiment [1], the IC50 came to 13 nM. For the same molecule, the inhibition at 10 µM in experiment [2] worked out at 26%.
As to `COc1c(OCCC(NC(=O)OCc2ccccc2)C(=O)OCC(O)CO)cc2c(c1OC)C1=C(CCC1)C(=NNC1=NCCCN1)CC2` (racemic) [EX. 27, (2,3-Dihydroxypropyl) Ester of O-(9,10-Dimethoxy1,2,3,4,5,6-hexahydro 4-[(1,4,5,6-tetrahydro2-pyrimidinyl)hydrazono]-8-benz(e)azulenyl]N-[(phenylmethoxy)carbonyl]DL-homoserine.], in experiment [1], the IC50 came to 170 nM. Also, the “Mouse cavarium % inhibition at 10 μM” value in experiment [2] was 39%.
For `COc1c(OCCC(NS(=O)(=O)c2cccc3cccnc23)C(=O)O)cc2c(c1OC)C1=C(CCC1)C(=NNC1=NCCN1)CC2` (racemic) [EX. 28, O-[4-[(4,5-Dihydro1H-imidazol-2-yl)hydrazono]9,10-dimethoxy 1,2,3,4,5,6-hexahydro8-benz(e)azulenyl]N-[(8-quinolinyl)sulphonyl]DL-homoserine], the IC50 in experiment [1] was found to be 15 nM. The inhibition at 10 µM in experiment [2] was determined as 27%.
For `COc1c(OCCC(NC(=O)OCCCn2cnc(-c3cccnc3)c2)C(=O)O)cc2c(c1OC)C1=C(CCC1)C(=NNC1=NCCN1)CC2` (racemic) [EX. 29, Monohydrochloride of O-[4-[(4,5-Dihydro1H-imidazol-2-yl)hydrazono]9,10-dimethoxy1,2,3,4,5,6-hexahydro8-benz(e)azulenyl]N-[[3-[4-(3-pyridinyl)1H-imidazol-1-yl]propoxy]carbonyl]DL-homoserine] the same measures were 28 nM and 18%.
For the molecule `COc1c(OCCC(NC(=O)OCc2ccccc2)C(=O)O)cc2c(c1OC)C1=C(CCC1)C(=NNC1=NCCCCN1)CC2` (racemic) [EX. 31, O-[9,10-Dimethoxy1,2,3,4,5,6-hexahydro4-[(4,5,6,7-tetrahydro1H-1,3-diazepin-2-yl)hydrazono]8-benz(e)azulenyl]N-[(phenylmethoxy)carbonyl]DL-homoserine], the IC50 in experiment [1] came to 55 nM. For the same molecule, the inhibition at 10 µM in experiment [2] amounted to 20%.
Consider `COc1c(OCCC(NC(=O)OCc2ccccc2)C(=O)O)cc2c(c1OC)C1=C(CCC1)C(=NNC1=NC3CCCCC3N1)CC2` (racemic) [EX. 32, O-[9,10-Dimethoxy1,2,3,4,5,6-hexahydro4-[(3a,4,5,6,7,7a-hexahydro1H-benzimidazol-2-yl)hydrazono]8-benz(e)azulenyl]N-[(phenylmethoxy)carbonyl]DL-homoserine], for which the IC50 in experiment [1] is 35 nM.
With `COc1c(OCCCCC(=O)O)cc2c(c1OC)C1=C(CCC1)C(=NNC1=NCCN1)CC2` [EX. 6, 5-(9,10-dimethoxy-1,2,3,4,5,6-hexahydro-4-(4,5-dihydro-1H-imidazolin-2-yl)hydrazono)-8-benz(e)azulenyl)oxy)-pentanoic Acid], the IC50 in experiment [1] was 110 nM. In experiment [2], the inhibition at 10 µM was 7.5%.
For the molecule `COc1c(OCCCCCC(=O)O)cc2c(c1OC)C1=C(CCC1)C(=NNC1=NCCN1)CC2` [EX. 8, 6-(4((4,5-Dihydro-1H-imidazolin-2-yl)hydrazono)-9,10-dimethoxy-1,2,3,4,5,6-hexahydro-8-benz(e)azulenyl)oxy)-hexanoic Acid], the IC50 in experiment [1] is 2790 nM.
As for `COc1c(OCC(=O)C(C)(C)CC(=O)O)cc2c(c1OC)C1=C(CCC1)C(=NNC1=NCCN1)CC2` [EX. 10, 5-(4((4,5-Dihydro-1H-imidazolin-2-yl)hydrazono)-9,10-dimethoxy-1,2,3,4,5,6-hexahydro-S-benz(e)azulenyl)oxy)-3,3-dimethyl-4-oxo-pentanoic Acid], the IC50 in experiment [1] was found to be 800 nM. Further, in experiment [2], the inhibition at 10 µM amounted to 8%.
Consider `COc1c(OCCCC(=O)O)cc2c(c1OC)C1=C(CCC1)C(=NNC1=NCCN1)CC2` [EX. 11, 4-(4((4,5-Dihydro-1H-imidazolin-2-yl)hydrazono)-9,10-dimethoxy-1,2,3,4,5,6-hexahydro-8-benz(e)azulenyl)oxy)-butanoic Acid], for which the IC50 in experiment [1] was determined as 50 nM. In addition, in experiment [2], the inhibition at 10 µM was 7%.
`O=C(O)CCCOc1ccc2c(c1)CCC(=NNC1=NCCN1)C1=C2CCC1` [EX. 21, 4-(4((4,5-Dihydro-1H-imidazolin-2-yl)hydrazono)-1,2,3,4,5,6-hexahydro-8-benz(e)azulenyl)oxy)-butanoic Acid]: the IC50 in experiment [1] was 37 nM.
`N=C(N)NN=C1CCc2cc(OCCCCC(=O)O)c3c(c2C2=C1CCC2)OCO3` [EX. 22, 5-((8-(((Amino)iminomethyl)hydrazono)-6,7,8,9,10,11-hexahydro-azuleno(5,6-d)-1,3-benzodioxol-4-yl)-oxy)-pentanoic Acid]: in experiment [1], the IC50 is 2360 nM.
